In brackets after ≈: the same amount, converted by molar mass.
Key:
CCRF-CEM = assay: Antiproliferative activity against human CEM cells assessed as inhibition of cell proliferation incubated for 48 hrs by coulter counter assay; format: functional, cell-based
HeLa [1] = assay: Antiproliferative activity against human HeLa cells assessed as inhibition of cell proliferation incubated for 48 hrs by coulter counter assay; format: functional, cell-based
[2] = Antiproliferative activity against human HMEC-1 cells assessed as inhibition of cell proliferation incubated for 48 hrs by coulter counter assay; format: toxicity, cell-based
L1210 = assay: Antiproliferative activity against mouse L1210 cells assessed as inhibition of cell proliferation incubated for 48 hrs by coulter counter assay; format: functional, cell-based; settings: L1210, 48 h
HCT-116 = assay: Antiproliferative activity against human HCT-116 cells assessed as inhibition of cell proliferation incubated for 48 hrs by MTT assay; format: functional, cell-based; settings: HCT-116, 48 h
K562 [3] = assay: Antiproliferative activity against human K562 cells assessed as inhibition of cell proliferation incubated for 48 hrs by MTT assay; format: functional, cell-based; settings: K562, 48 h
[4] = Antiproliferative activity against human QSG7701 cells assessed as inhibition of cell proliferation incubated for 48 hrs by MTT assay; format: toxicity, cell-based
SMMC-7721 = assay: Antiproliferative activity against human SMMC-7721 cells assessed as inhibition of cell proliferation incubated for 48 hrs by MTT assay; format: functional, cell-based; settings: SMMC-7721, 48 h
MDA-MB-231 = assay: Antiproliferative activity against human MDA-MB-231 cells assessed as inhibition of cell proliferation incubated for 48 hrs by MTT assay; format: functional, cell-based; settings: MDA-MB-231, 48 h
HepG2 = assay: Antiproliferative activity against human HepG2 cells assessed as inhibition of cell proliferation incubated for 48 hrs by MTT assay; format: functional, cell-based; settings: HepG2, 48 h
K562 [5] = assay: Cytotoxicity against human K562 cells assessed as inhibition of cell growth incubated for 48 hrs by MTT assay; format: functional, cell-based; settings: K562, 48 h
HeLa [6] = assay: Cytotoxicity against human HeLa cells assessed as inhibition of cell growth incubated for 48 hrs by MTT assay; format: functional, cell-based
A549 = assay: Cytotoxicity against human A549 cells assessed as inhibition of cell growth incubated for 48 hrs by MTT assay; format: functional, cell-based; settings: A549, 48 h
Escherichia coli = assay: Antibacterial activity against Escherichia coli MTCC 443 assessed as inhibition of bacterial growth by agar well diffusion assay; format: functional
[7] = system: Staphylococcus epidermidis; assay: Antibacterial activity against Staphylococcus epidermidis MTCC 435 assessed as inhibition of bacterial growth by agar well diffusion assay; format: functional
Pseudomonas aeruginosa = assay: Antibacterial activity against Pseudomonas aeruginosa MTCC 741 assessed as inhibition of bacterial growth by agar well diffusion assay; format: functional
Calf thymus DNA = assay: Binding affinity to calf thymus DNA assessed as DNA intercalation by measuring change in melting temperature by thermal denaturation assay; format: nucleic-acid assay; settings: Bos taurus
Staphylococcus aureus = assay: Antibacterial activity against Staphylococcus aureus MTCC 96 assessed as inhibition of bacterial growth by agar well diffusion assay; format: functional

IC50 (HCT-116) [µM]	IC50 (K562 [3]) [µM]	IC50 (SMMC-7721) [µM]	IC50 (MDA-MB-231) [µM]	IC50 (HepG2) [µM]	SMILES	IC50 (CCRF-CEM) [µM]	IC50 (HeLa [1]) [µM]	IC50 at 48 h [2] [µM]	IC50 (L1210) [µM]	IC50 at 48 h [4] [µM]	also measured
–	–	–	–	–	CCOP(=O)(CCCn1cc(CN2C(=O)c3cccc4cccc(c34)C2=O)nn1)OCC	> 250	> 250	> 250	> 250	–	–
> 50	> 50	> 50	> 50	> 50	CN(C)CCN1C(=O)c2cccc3cc(NC(=O)NCCCCN)cc(c23)C1=O	–	–	–	–	> 50	–
–	–	–	–	–	CN(C)CCN1C(=O)c2cccc3cc(NC(=O)CCN)cc(c23)C1=O	–	–	–	–	–	IC50 (K562 [5]): 8.5 µM; IC50 (HeLa [6]): 21.5 µM; IC50 (A549): 4.7 µM
–	–	–	–	–	CCOP(=O)(CCCCn1cc(CN2C(=O)c3cccc4cccc(c34)C2=O)nn1)OCC	> 250	> 250	> 250	> 250	–	–
–	–	–	–	–	CCOP(=O)(Cn1cc(CN2C(=O)c3cccc4cccc(c34)C2=O)nn1)OCC	> 250	> 250	> 250	> 250	–	–
–	–	–	–	–	CCOP(=O)(CC(=O)NCn1cc(CN2C(=O)c3cccc4cc([N+](=O)[O-])cc(c34)C2=O)nn1)OCC	> 250	> 250	> 250	> 250	–	–
6.42	6.42	6.42	6.42	6.42	CN(C)CCNCC(=O)Nc1cc2c3c(cccc3c1)C(=O)N(CCN(C)C)C2=O	–	–	–	–	6.42	–
–	–	–	–	–	CN(C)CCN1C(=O)c2cccc3cc(NC(=O)CCCN)cc(c23)C1=O	–	–	–	–	–	IC50 (K562 [5]): 8.5 µM; IC50 (HeLa [6]): 21.5 µM; IC50 (A549): 4.7 µM
–	–	–	–	–	O=C1c2cccc3cccc(c23)C(=O)N1c1nc(-c2cc3cc(Br)ccc3oc2=O)cs1	–	–	–	–	–	MIC (Escherichia coli): 18.8 µg/mL (≈ 37.3 µM); MIC [7]: 18.8 µg/mL (≈ 37.3 µM); MIC (Pseudomonas aeruginosa): 18.8 µg/mL (≈ 37.3 µM); ΔTm (Calf thymus DNA): 0.1 °C; MIC (Staphylococcus aureus): 18.8 µg/mL (≈ 37.3 µM)
–	–	–	–	–	CCOP(=O)(CCn1cc(CN2C(=O)c3cccc4cc([N+](=O)[O-])cc(c34)C2=O)nn1)OCC	> 250	> 250	> 250	> 250	–	–
–	–	–	–	–	CCOP(=O)(CCOCn1cc(CN2C(=O)c3cccc4c(Br)ccc(c34)C2=O)nn1)OCC	> 250	> 250	> 250	> 250	–	–
–	–	–	–	–	CCOP(=O)(CC(O)Cn1cc(CN2C(=O)c3cccc4c(Br)ccc(c34)C2=O)nn1)OCC (configuration not stated)	> 250	> 250	> 250	> 250	–	–
> 50	> 50	> 50	> 50	> 50	CN(C)CCN1C(=O)c2cccc3cc(NC(=O)NCCCNCCCCN)cc(c23)C1=O	–	–	–	–	> 50	–
–	–	–	–	–	CCOP(=O)(CCOCCn1cc(CN2C(=O)c3cccc4c(Br)ccc(c34)C2=O)nn1)OCC	> 250	> 250	> 250	> 250	–	–
6.42	6.42	6.42	6.42	6.42	CN(C)CCN1C(=O)c2cccc3cc(NC(=O)CNCCCN)cc(c23)C1=O	–	–	–	–	6.42	–
> 50	> 50	> 50	> 50	> 50	CCCCNC(=O)Nc1cc2c3c(cccc3c1)C(=O)N(CCN(C)C)C2=O	–	–	–	–	> 50	–
–	–	–	–	–	CCOP(=O)(CCCn1cc(CN2C(=O)c3cccc4c(Br)ccc(c34)C2=O)nn1)OCC	> 250	> 250	> 250	> 250	–	–
–	–	–	–	–	CCOP(=O)(CCOCn1cc(CN2C(=O)c3cccc4cccc(c34)C2=O)nn1)OCC	> 250	> 250	> 250	> 250	–	–
–	–	–	–	–	O=C(O)c1cn(C2CC2)c2cc(N3CCNCC3)c(F)cc2c1=O [CIPROFLOXACIN]	–	–	–	–	–	MIC (Escherichia coli): 18.8 µg/mL (≈ 56.6 µM); MIC [7]: 18.8 µg/mL (≈ 56.6 µM); MIC (Pseudomonas aeruginosa): 18.8 µg/mL (≈ 56.6 µM); MIC (Staphylococcus aureus): 18.8 µg/mL (≈ 56.6 µM)
> 50	> 50	> 50	> 50	> 50	CN(C)CCN1C(=O)c2cccc3cc(NC(=O)NCCCNCCCNCCCCN)cc(c23)C1=O	–	–	–	–	> 50	–
8.62	8.62	8.62	> 50	> 50	CN(C)CCNC(=O)Nc1cc2c3c(cccc3c1)C(=O)N(CCN(C)C)C2=O	–	–	–	–	> 50	–
